Measurements as given in patent publication US9120766B2, “Methods of making cocrystals” (Aptuit (West Lafayette), LLC, priority 2011, dated 2015).
≈ marks a conversion by molar mass, not a printed value.

Key:
physchem = details: thermodynamic from solid
[1] = literature (López-Nicolás 2009); cited from earlier work
[2] = literature; cited from earlier work
[3] = Solubility estimates at ambient temperature (gravimetric or incremental solvent addition); details: thermodynamic from solid

In the case of `CC(=O)[C@H]1CC[C@H]2[C@@H]3CCC4=CC(=O)CC[C@]4(C)[C@H]3CC[C@]12C` [Progesterone, reference compound], the solubility (physchem; organic solvent or mixture) is reported as 30 mg/mL (≈ 95.4 mM).

In the case of `COc1cc(/C=C/c2ccc(O)cc2)cc(OC)c1` [Pterostilbene], the Solubility in water [1] is given as “poor solubility in water”, the Bioavailability [2] is given as “poor bioavailability” and the solubility ([3]; ACN, organic solvent or mixture, solvent ACN, ambient temperature) is given as > 203 mg/mL. The solubility ([3]; EtOAc, organic solvent or mixture, solvent EtOAc, ambient temperature) was > 201 mg/mL, the solubility ([3]; EtOH, organic solvent or mixture, solvent EtOH, ambient temperature) was 410 mg/mL (≈ 1600 mM) and the solubility ([3]; MEK, organic solvent or mixture, solvent MEK, ambient temperature (Table 1)) was > 200 mg/mL. The solubility ([3]; MTBE, organic solvent or mixture, solvent MTBE, ambient temperature) was > 200 mg/mL, the solubility ([3]; heptane, organic solvent or mixture, solvent Heptane, ambient temperature) was < 2 mg/mL and the solubility ([3]; isopropanol/water with water content 70% and higher, aqueous with cosolvent or surfactant or cyclodextrin) was ≤ 2 mg/mL. For the same molecule, the solubility ([3]; isopropanol:water 40:60, aqueous with cosolvent or surfactant or cyclodextrin, 40:60 isopropanol to water mixture) was ~22 mg/mL (≈ 85.8 mM), the solubility ([3]; isopropyl alcohol (IPA), organic solvent or mixture, solvent IPA (isopropyl alcohol), ambient temperature) was 399 mg/mL (≈ 1560 mM) and the solubility ([3]; water, solvent Water, ambient temperature) was 0.02 mg/mL (≈ 0.078 mM). For the same molecule, the solubility ([3]; water:IPA 55:45, aqueous with cosolvent or surfactant or cyclodextrin, solvent Water:IPA 55:45, ambient temperature) was 22 mg/mL (≈ 85.8 mM), the solubility ([3]; water:IPA 60:40, aqueous with cosolvent or surfactant or cyclodextrin, solvent Water:IPA 60:40, ambient temperature) was 22 mg/mL (≈ 85.8 mM) and the solubility ([3]; water:IPA 70:30, aqueous with cosolvent or surfactant or cyclodextrin, solvent Water:IPA 70:30, ambient temperature) was 2 mg/mL (≈ 7.8 mM). For the same molecule, the solubility ([3]; water:ethanol 50:50 v/v, aqueous with cosolvent or surfactant or cyclodextrin, solvent system Water:ethanol 50:50 v/v, ambient temperature) was 54 mg/mL (≈ 211 mM).

`NC(=O)c1cccnc1` [nicotinamide] gave a solubility (physchem; organic solvent or mixture) of 42 mg/mL (≈ 344 mM).

For `C1CNCCN1` [piperazine], the solubility (physchem; aqueous with cosolvent or surfactant or cyclodextrin) was > 324 mg/mL.
